The target of the assay is T1, Leukotriene A-4 hydrolase (Homo sapiens, UniProt P09960).
T1 sequence (P09960 whole entry): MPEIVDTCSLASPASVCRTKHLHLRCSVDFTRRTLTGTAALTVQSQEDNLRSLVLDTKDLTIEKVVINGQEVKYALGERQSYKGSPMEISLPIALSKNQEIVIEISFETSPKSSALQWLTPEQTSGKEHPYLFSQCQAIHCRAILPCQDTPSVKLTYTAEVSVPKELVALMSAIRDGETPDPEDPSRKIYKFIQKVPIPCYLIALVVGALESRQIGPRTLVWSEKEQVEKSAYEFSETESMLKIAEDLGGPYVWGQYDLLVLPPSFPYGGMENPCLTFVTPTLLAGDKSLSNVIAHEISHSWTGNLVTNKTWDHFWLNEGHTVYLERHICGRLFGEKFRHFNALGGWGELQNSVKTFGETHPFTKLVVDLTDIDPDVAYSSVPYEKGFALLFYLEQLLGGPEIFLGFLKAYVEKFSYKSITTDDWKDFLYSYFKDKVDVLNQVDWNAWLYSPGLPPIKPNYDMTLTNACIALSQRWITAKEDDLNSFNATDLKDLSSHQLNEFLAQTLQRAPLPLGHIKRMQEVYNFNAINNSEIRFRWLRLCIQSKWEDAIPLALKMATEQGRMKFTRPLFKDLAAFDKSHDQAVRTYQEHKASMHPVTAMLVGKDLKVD
Put plainly: Inhibition of recombinant human LTA4H Epoxide Hydrolase expressed in Escherichia coli BL21 (DE3) pLysS preincubated for 10 mins followed by addition of LTA4 as substrate measured after 15 mins by reverse-phase HPLC analysis.

Each structure is given as a SMILES string.

A word on the IC50: it is the concentration needed to halve the response being measured.

For the compound `CN(C)Cc1cccc(S(=O)(=O)n2ccc(/C=C/C(=O)NO)c2)c1`, the half-inhibitory concentration (IC50) was over 10 µM.

For the origin of these results see BindingDB's records for doi:10.1021/acs.jmedchem.6b01507 (East China University of Science and Technology, 2017).
